Experiment [1] has as its target full-length MALT1 protein (Strep-MALT1(1-824)-His) (Homo sapiens (Human), UniProt Q9UDY8). As to the kind of experiment: MALT1 Biochemical Protease Assay (Ac-LRSR-AMC substrate). As to conditions: 10 nM FL MALT1, 200 μM Ac-LRSR-AMC, 4 h at RT; read-out: MALT1_Biochemical activity (Ac-LRSR-amc) IC50. The method, boiled down: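 Fluorescence from AMC release off the quenched LRSR substrate was read after a 4 h reaction at RT. Values were normalised to no-enzyme and uninhibited controls and fitted for IC50 and Hill coefficient.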

Experiment [2] concerns IL6 secretion by OCI-LY3 ABC-DLBCL cells. Kind of experiment: Human IL6 Mesoscale assay (OCI-LY3). To be noted: Homo sapiens, 24 h. Format: cell-based. The procedure:
(§1) NFKB signaling regulates the secretion of multiple cytokines, including IL6 and IL10. Secretion of the cytokines IL6 and IL10 by TMD8 or OCI-LY3 ABC-DLBCL cells was measured using a mesoscale assay. Inhibition of NFKB signaling by MALT1 or BTK inhibitors results in a decrease of IL6/10 secretion.
(§2) TMD8 or OCI-LY3 cells were propagated in RPMI-1640 (Sigma Aldrich) supplemented with 10% fetal bovine serum (HyClone), 1 mM sodium pyruvate (Invitrogen), 2 mM L-glutamine (Sigma Aldrich) and 1% PenStrep (Sigma Aldrich). Cell passage number should not exceed 30. Cells should be kept between 0.5-2.5 million cells per mL during culturing and cells should be supplemented every 2-3 days with fresh 50 μM beta-mercaptoenthanol. No beta-mercaptoethanol was used during the mesoscale assay.
(§3) For the Mesoscale assay, 100,000 TMD8 or OCI-LY3 cells were seeded per well into black-colored 96-well plates with clear bottom (Corning #3904) and test compounds were added in 9 dilution steps (1:2) ranging from 15 μM to 58.6 nM (final DMSO concentration 0.3%). DMSO control wells were used to determine the maximum signal (High Control (HC)). Treatment with the BTK inhibitor RN486 in a dose range from 30 nM to 131 pM (9 dilutions of 1:2) served as a positive control for NFKB pathway inhibition and was used to determine the maximum inhibition (Low Control (LC)). Compounds and cells were incubated for 24 h at 37° C. and 5% CO2 (assay volume is 150 μL). After 24 h of incubation 50 μL of the supernatant was transferred to a MSD plate (V-Plex Proinflammation Panel 1 (human) kit, Mesoscale (MSD)) and incubated for 2 h with vigorous shaking (600 rpm) at room temperature. Following incubation, plates were washed 3× with PBS+0.05% Tween-20 and 25 μL detection antibody solution (IL6 & IL10 antibodies in diluent 3 (MSD)) was added per well followed by 2 h of incubation with vigorous shaking (600 rpm) at room temperature. After 3× washes with PBS+0.05% Tween-20, plates were incubated with 150 μL 2× Read Buffer T and read on SECTOR imager.

Experiment [3] relates to IL10 secretion by OCI-LY3 ABC-DLBCL cells. Kind of experiment: Human IL10 Mesoscale assay (OCI-LY3). Format: cell-based. As to conditions: Homo sapiens, 24 h. The procedure:
as §1, §2, §3

Experiment [4] relates to IL6 secretion by TMD8 ABC-DLBCL cells. Kind of experiment: Human IL6 Mesoscale assay (TMD-8). The format is cell-based. To be noted: TMD-8 cells, 24 h. The method in brief:
(§4)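 Read-out: MSD electrochemiluminescence of IL6/IL10 in supernatants. Cells (100,000/well, no beta-mercaptoethanol) were exposed to compounds at 15 μM down to 58.6 nM, 1:2 dilutions, for 24 h at 37° C, 5% CO2. Normalised between DMSO (high) and RN486 (low) controls.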

The subject of experiment [5] is IL10 secretion by TMD8 ABC-DLBCL cells. As to the kind of experiment: Human IL10 Mesoscale assay (TMD-8). As to conditions: TMD-8 cells, 24 h. The format is cell-based. The method in brief:
as §4

full-length MALT1 protein (Strep-MALT1(1-824)-His), sequence (Q9UDY8 whole entry): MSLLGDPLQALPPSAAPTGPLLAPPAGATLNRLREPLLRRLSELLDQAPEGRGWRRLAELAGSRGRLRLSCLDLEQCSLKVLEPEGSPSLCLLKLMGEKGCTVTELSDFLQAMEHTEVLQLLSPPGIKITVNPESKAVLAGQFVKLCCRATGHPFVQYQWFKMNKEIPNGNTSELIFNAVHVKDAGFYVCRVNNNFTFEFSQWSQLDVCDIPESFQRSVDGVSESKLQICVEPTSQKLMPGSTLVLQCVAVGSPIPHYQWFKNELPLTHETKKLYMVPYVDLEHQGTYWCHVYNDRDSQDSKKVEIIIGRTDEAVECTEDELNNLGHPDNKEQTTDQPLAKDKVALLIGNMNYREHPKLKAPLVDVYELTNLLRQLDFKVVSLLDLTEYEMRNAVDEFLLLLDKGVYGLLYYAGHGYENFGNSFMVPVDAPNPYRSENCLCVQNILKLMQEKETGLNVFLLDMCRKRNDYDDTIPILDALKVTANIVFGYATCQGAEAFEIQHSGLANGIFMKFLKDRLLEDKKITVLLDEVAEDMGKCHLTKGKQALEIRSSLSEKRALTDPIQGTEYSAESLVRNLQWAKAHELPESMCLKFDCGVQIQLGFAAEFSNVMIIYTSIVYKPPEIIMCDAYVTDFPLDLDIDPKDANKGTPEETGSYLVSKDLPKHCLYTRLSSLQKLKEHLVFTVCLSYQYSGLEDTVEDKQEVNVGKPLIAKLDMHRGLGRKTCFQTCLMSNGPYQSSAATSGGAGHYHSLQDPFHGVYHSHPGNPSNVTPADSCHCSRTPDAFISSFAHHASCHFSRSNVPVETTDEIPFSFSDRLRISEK

For `O=C(Nc1cnc(-n2nccn2)c(Cl)c1)c1cnn(-c2cnc([C@H]3CCCO3)c3ccccc23)c1C(F)(F)F` (single isomer, unassigned) [Cpd 436, (*R)—N-(5-chloro-6-(2H-1,2,3-triazol-2-yl)pyridin-3-yl)-1-(1-(tetrahydrofuran-2-yl)isoquinolin-4-yl)-5-(trifluoromethyl)-1H-pyrazole-4-carboxamide], the IC50 (as a rule, the concentration that inhibits the measured activity by half) in experiment [1] was found to be 1320 nM; in experiment [2], 141 nM; in experiment [3] it was 110 nM.

As to `O=C(Nc1cnc(-n2nccn2)c(Cl)c1)c1cnn(-c2cccc3nc([C@@H]4CCCO4)ccc23)c1C(F)(F)F` (single isomer, unassigned) [Cpd 441, (*S)—N-(5-chloro-6-(2H-1,2,3-triazol-2-yl)pyridin-3-yl)-1-(2-(tetrahydrofuran-2-yl)quinolin-5-yl)-5-(trifluoromethyl)-1H-pyrazole-4-carboxamide], the IC50 in experiment [1] is 977 nM; in experiment [2], 1120 nM; in experiment [3], 891 nM.

As to `C[C@@H](O)c1ncc(-n2ncc(C(=O)Nc3cnc(-n4nccn4)c(Cl)c3)c2C(F)(F)F)c2ccccc12` (single isomer, unassigned) [Cpd 442, (*R)—N-(5-chloro-6-(2H-1,2,3-triazol-2-yl)pyridin-3-yl)-1-(1-(1-hydroxyethyl)isoquinolin-4-yl)-5-(trifluoromethyl)-1H-pyrazole-4-carboxamide], the values for the half-inhibitory concentration (IC50) in experiment [1], in experiment [2] and in experiment [3] were 62 nM, 162 nM and 112 nM, respectively.

For `C[C@H](O)c1nccc2c(-n3ncc(C(=O)Nc4cnc(-n5nccn5)c(Cl)c4)c3C(F)(F)F)cccc12` (single isomer, unassigned) [Cpd 445, (*S)—N-(5-chloro-6-(2H-1,2,3-triazol-2-yl)pyridin-3-yl)-1-(1-(1-hydroxyethyl)isoquinolin-5-yl)-5-(trifluoromethyl)-1H-pyrazole-4-carboxamide], the results for the IC50 in experiment [1], in experiment [2] and in experiment [3] were 79 nM, 186 nM and 93 nM, respectively.

Regarding `O=C(Nc1cnc(-n2nc3ccncc3n2)c(Cl)c1)c1cnn(-c2cccc3ncccc23)c1C(F)(F)F` [Cpd 162, N-(6-(2H-[1,2,3]triazolo[4,5-c]pyridin-2-yl)-5-chloropyridin-3-yl)-1-(quinolin-5-yl)-5-(trifluoromethyl)-1H-pyrazole-4-carboxamide], the results for the IC50 in experiment [1], in experiment [2] and in experiment [3] were 363 nM, 437 nM and 309 nM, respectively.

As to `O=C(Nc1cnc(-n2nnc3cnccc32)c(Cl)c1)c1cnn(-c2cccc3ncccc23)c1C(F)(F)F` [Cpd 163, N-(6-(1H-[1,2,3]triazolo[4,5-c]pyridin-1-yl)-5-chloropyridin-3-yl)-1-(quinolin-5-yl)-5-(trifluoromethyl)-1H-pyrazole-4-carboxamide], the results for the IC50 in experiment [1], in experiment [2] and in experiment [3] were 224 nM, 95 nM and 71 nM, respectively.

For the compound `O=C(Nc1cnc(-n2nc3cccnc3n2)c(Cl)c1)c1cnn(-c2cccc3ncccc23)c1C(F)(F)F` [Cpd 164, N-(6-(2H-[1,2,3]triazolo[4,5-b]pyridin-2-yl)-5-chloropyridin-3-yl)-1-(quinolin-5-yl)-5-(trifluoromethyl)-1H-pyrazole-4-carboxamide], the IC50 is 282 nM in experiment [1] and 1660 nM in experiment [2].

For `O=C(Nc1cnc(-n2nnc3cccnc32)c(Cl)c1)c1cnn(-c2cccc3ncccc23)c1C(F)(F)F` [Cpd 165, N-(6-(3H-[1,2,3]triazolo[4,5-b]pyridin-3-yl)-5-chloropyridin-3-yl)-1-(quinolin-5-yl)-5-(trifluoromethyl)-1H-pyrazole-4-carboxamide], the IC50 in experiment [1] turned out to be 245 nM; in experiment [2], 447 nM; in experiment [3] it was 339 nM.

Regarding `O=C(Nc1ccc(-c2n[nH]c(=O)[nH]2)c(Cl)c1)c1cnn(-c2cccc3ncccc23)c1C(F)(F)F` [Cpd 166, N-(3-chloro-4-(5-oxo-4,5-dihydro-1H-1,2,4-triazol-3-yl)phenyl)-1-(quinolin-5-yl)-5-(trifluoromethyl)-1H-pyrazole-4-carboxamide], the IC50 stood at 229 nM in experiment [1], 457 nM in experiment [2] and 479 nM in experiment [3].

Take `O=C(Nc1cnc(-n2nncc2CO)c(Cl)c1)c1cnn(-c2cccc3c(=O)[nH]ccc23)c1C(F)(F)F` [Cpd 168, N-(5-chloro-6-(5-(hydroxymethyl)-1H-1,2,3-triazol-1-yl)pyridin-3-yl)-1-(1-oxo-1,2-dihydroisoquinolin-5-yl)-5-(trifluoromethyl)-1H-pyrazole-4-carboxamide]: the values for the IC50 in experiment [1], in experiment [2] and in experiment [3] were 107 nM, 123 nM and 44 nM, respectively.

Take `Cc1nc(-n2nccn2)c(Cl)cc1NC(=O)c1cnn(-c2cnc(N)c3ccccc23)c1C(F)(F)F` [Cpd 180, 1-(1-aminoisoquinolin-4-yl)-N-(5-chloro-2-methyl-6-(2H-1,2,3-triazol-2-yl)pyridin-3-yl)-5-(trifluoromethyl)-1H-pyrazole-4-carboxamide]: the IC50 in experiment [1] came to 26 nM; in experiment [2], 79 nM; in experiment [3] it was 81 nM.

In the case of `N#Cc1c(C(=O)Nc2cnc(-n3nccn3)c(Cl)c2)cnn1-c1cccc2ncccc12` [Cpd 186, N-(5-Chloro-6-(2H-1,2,3-triazol-2-yl)pyridin-3-yl)-5-cyano-1-(quinolin-5-yl)-1H-pyrazole-4-carboxamide], the values for the IC50 in experiment [1], in experiment [2] and in experiment [3] were 380 nM, 1120 nM and 891 nM, respectively.

Consider `O=C(Nc1cnc(-n2nccn2)c(Cl)c1)c1cnn(-c2cccc3ncccc23)c1Cl` [Cpd 187, 5-Chloro-N-(5-chloro-6-(2H-1,2,3-triazol-2-yl)pyridin-3-yl)-1-(quinolin-5-yl)-1H-pyrazole-4-carboxamide], for which the IC50 amounted to 178 nM in experiment [1], 162 nM in experiment [2] and 112 nM in experiment [3].

In the case of `C#Cc1cc(NC(=O)c2cnn(-c3cccc4c(=O)[nH]ccc34)c2C(F)(F)F)c(C)nc1-n1nccn1` [Cpd 190, N-(5-ethynyl-2-methyl-6-(2H-1,2,3-triazol-2-yl)pyridin-3-yl)-1-(1-oxo-1,2-dihydroisoquinolin-5-yl)-5-(trifluoromethyl)-1H-pyrazole-4-carboxamide], the results for the 50% inhibitory concentration (IC50) in experiment [1], in experiment [2] and in experiment [3] were 170 nM, 186 nM and 93 nM, respectively.

`CCc1nc(-n2nccn2)c(Cl)cc1NC(=O)c1cnn(-c2cccc3nccn23)c1C(F)(F)F` [Cpd 195, N-(5-chloro-2-ethyl-6-(2H-1,2,3-triazol-2-yl)pyridin-3-yl)-1-(imidazo[1,2-a]pyridin-5-yl)-5-(trifluoromethyl)-1H-pyrazole-4-carboxamide]: the IC50 in experiment [1] turned out to be 324 nM; in experiment [2], 107 nM; in experiment [3] it was 71 nM.

For `Cc1cn2c(-n3ncc(C(=O)Nc4cnc(-n5nccn5)c(Cl)c4)c3C(F)(F)F)cccc2n1` [Cpd 199, N-(5-chloro-6-(2H-1,2,3-triazol-2-yl)pyridin-3-yl)-1-(2-methylimidazo[1,2-a]pyridin-5-yl)-5-(trifluoromethyl)-1H-pyrazole-4-carboxamide], the IC50 in experiment [1] was 110 nM; in experiment [2] it was 295 nM.

For `O=C(Nc1cnc(-n2nccn2)c(Cl)c1)c1cnn(-c2cnc(N3CC[C@@H](O)C3)c3sccc23)c1C(F)(F)F` [Cpd 432, (R)—N-(5-chloro-6-(2H-1,2,3-triazol-2-yl)pyridin-3-yl)-1-(7-(3-hydroxypyrrolidin-1-yl)thieno[2,3-c]pyridin-4-yl)-5-(trifluoromethyl)-1H-pyrazole-4-carboxamide], the IC50 was 98 nM in experiment [1]; 933 nM in experiment [4] (Homo sapiens, TMD8); 363 nM in experiment [5] (Homo sapiens, TMD8).

For the compound “N-(5-chloro-6-(4-methyl-2H-1,2,3-triazol-2-yl)pyridin-3-yl)-1-(quinolin-5-yl)-5-(trifluoromethyl)-1H-pyrazole-4-carboxamide [Cpd 304]”, the IC50 in experiment [1] stood at 62 nM; in experiment [4], 3310 nM; in experiment [5], 3240 nM.

The values are drawn from patent US10954214B2 (Janssen Pharmaceutica NV, priority 2016, dated 2021).
